Experimental data from US10927139B2, “Chemically cleavable group” (Tagworks Pharmaceuticals B.V., priority 2012, dated 2021).

Key:
[1] = Testing the stability of a TCO compound under chemical conditions (HPLC-MS/PDA, GC-MS); assay type: physicochemical; conditions: for 1 h
Experimental: (§1) The feasibility to use the TCO group as a protective group in chemistry was studied by testing the stability of a range of TCO derivatives as model compounds under various conditions, and following the deprotection upon reaction with a tetrazine derivative under these conditions.
Typical Example for Testing the Stability of a TCO Compound
The TCO stock solution (10 μL 25 mM; 2.5*10^−7 mol) was added to a solution of the specific condition (100 μL). The mixture was stirred at the specific condition for a certain amount of time, and then the fate of the TCO compound was monitored by HPLC-MS/PDA analysis and/or GC-MS analysis, and an estimation of its stability was made.
(§2) A) in acetonitrile with 5 equivalents of pyridine per TCO at 20° C.
(§3) B) in acetonitrile with 5 equivalents of DIPEA per TCO at 20° C.
(§4) C) in acetonitrile with 5 equivalents of piperidine per TCO at 20° C.
(§5) D) in acetonitrile with 5 equivalents of n-butylamine per TCO at 20° C.
(§6) E) in acetonitrile with 5 equivalents of 2-mercaptoethanol per TCO at 20° C.
(§7) F) in tetrahydrofuran with 5 equivalents of triphenylphosphine per TCO at 20° C.
(§8) G) in acetonitrile with 5 equivalents of DCC per TCO at 20° C.
(§9) H) in acetonitrile with 5 equivalents of PyBOP per TCO at 20° C.
(§10) I) in acetonitrile with 1 v % of formic acid at 20° C.
(§11) J) in chloroform at 20° C.
(§12) K) in chloroform with 1 v % of formic acid at 20° C.
(§13) L) in chloroform with 1 v % of trifluoroacetic acid at 20° C.
(§14) M) in chloroform with 10 v % of trifluoroacetic acid at 20° C.
(§15) N) in chloroform with 33 v % of trifluoroacetic acid at 20° C.
(§16) Z) in 25% acetonitrile in water at 20° C.

[2] = Testing the feasibility of the deprotection of TCO compounds upon reaction with tetrazine; conditions: for 1 h
Experimental: as §1
Typical Example for Testing the Feasibility of the Deprotection
The TCO stock solution (10 μL 25 mM in acetonitrile; 2.5*10^−7 mol) was added to a solution of the specific condition (100 μL). A solution of 3,6-dimethyl-1,2,4,5-tetrazine (8, 20 μL 25 mM in acetonitrile; 5.0*10^−7 mol) was added, and the mixture was stirred at the specific condition for a certain amount of time. The reaction was monitored by HPLC-MS/PDA analysis and/or GC-MS analysis, and the percentage of deprotection was estimated.
as §2, §3, §4, §5, §6, §7, §8, §9, §10, §11, §12, §13, §14, §15, §16

[3] = Binding of TCO-protected doxorubicin to beads coated with BSA-tetrazine and doxorubicin release (HPLC); conditions: PBS, 37° C.
Experimental: Tetrazine functionalization of a BSA-coated particle has been described in J. Nucl. Med. 2013, 54, 1989-1995. Briefly, a solution of BSA (bovine serum albumin; 0.7 mg) in PBS was mixed with a 10 mg/mL solution of a bis-pyridyl-tetrazine-NHS derivative in DMF (35 μL, 30 eq. with respect to BSA) and the pH was adjusted to 9.0 with 1 M sodium carbonate buffer. The solution (125 μL total) was incubated at room temperature for 30 min then the unreacted tetrazine was removed from the solution by using a Zeba desalting spin column (7 kDa MW cut-off) pre-washed with PBS. UV measurements confirmed the presence of 12 tetrazine moieties per BSA molecule.
The eluate containing BSA-tetrazine in PBS was added to a 350 μL suspension of polystyrene beads (Polybeads, 0.5 μm, Polysciences) in H2O and the resulting suspension was incubated at +4° C. for 1 h on an end-over-end rotating mixer (10 rpm). After incubation, the suspension of beads coated with BSA-tetrazine was centrifuged at 12,000 rpm for 4 min. The supernatant was carefully removed and the pellet was resuspended in 1.5 mL PBS by using a tip sonicator at low power (Sonics VibraCell, 4×5 sec pulses, 40% of power). The centrifuging-resuspension cycle was repeated 2 times, after which the bead pellet was resuspended in 200 μL PBS and reacted with 7 nmol of TCO-protected doxorubicin (TCO-3-Doxorubin, 1 mM in DMSO).
After 5 min incubation at 37° C. in a thermomixer (350 rpm), the beads were removed by centrifugation and the supernatant was analyzed by HPLC on an Agilent Techologies system (1100 series) equipped with a fluorescence detector with λhex=485 nm and λem=590 nm. The sample was loaded on an Eclipse XDB-C18 column (5 μm, 4.6×150 mm^2, Agilent) which was eluted isocratically with 30% (v/v) acetonitrile in H2O containing 0.1% TFA (v/v) at 1 mL/min. HPLC analysis of the supernatant confirmed that ca. 75% of TCO-doxorubicin was bound to the beads.
The bead pellet was resuspended in 1.5 mL PBS and centrifuged twice to eliminate unbound TCO-doxorubicin. Subsequently, the beads were resuspended in 400 μL PBS and incubated at 37° C. At various times, aliquots of the supernatant were analyzed by HPLC. The chromatographic profiles (FIG. 2) show release of free doxorubicin (Rt=6.2 min) from the beads with time (>45% after 3 h; complete within 24 h).

[4] = A) in acetonitrile with 5 equivalents of pyridine per TCO at 20° C.
[5] = B) in acetonitrile with 5 equivalents of DIPEA per TCO at 20° C.
[6] = G) in acetonitrile with 5 equivalents of DCC per TCO at 20° C.
[7] = I) in acetonitrile with 1 v % of formic acid at 20° C.
[8] = Z) in 25% acetonitrile in water at 20° C.
[9] = tetrazine 8; A) in acetonitrile with 5 equivalents of pyridine per TCO at 20° C.
[10] = tetrazine 8; B) in acetonitrile with 5 equivalents of DIPEA per TCO at 20° C.
[11] = tetrazine 8; G) in acetonitrile with 5 equivalents of DCC per TCO at 20° C.
[12] = tetrazine 8; I) in acetonitrile with 1 v % of formic acid at 20° C.
[13] = tetrazine 8; J) in chloroform at 20° C.
[14] = tetrazine 8; Z) in 25% acetonitrile in water at 20° C.

Compound	Stability of TCO [1, 4]	Stability of TCO [1, 5]	Stability of TCO [1, 6]	Stability of TCO [1, 7]	Stability of TCO [1, 8]	Deprotection (%) [2, 9] [%]	Deprotection (%) [2, 10] [%]	Deprotection (%) [2, 11] [%]	Deprotection (%) [2, 12] [%]	Deprotection (%) [2, 14] [%]	also measured
O=C(NCc1cccc2ccccc12)OC1/C=C/CCCCC1 (stereo not shown)	stable stable stable stable stable stable stable stable stable stable stable stable stable stable	stable stable stable stable stable stable stable stable stable stable stable stable stable stable	stable stable stable stable stable stable stable stable stable stable stable stable stable stable	stable stable stable stable stable stable stable stable stable stable stable stable stable stable	stable stable stable stable stable stable stable stable stable stable stable stable stable stable	87	58	74	93	85	Stability of TCO ([1]; C) in acetonitrile with 5 equivalents of piperidine per TCO at 20° C.): stable stable stable stable stable stable stable stable stable stable stable stable stable stable; Stability of TCO ([1]; D) in acetonitrile with 5 equivalents of n-butylamine per TCO at 20° C.): stable stable stable stable stable stable stable stable stable stable stable stable stable stable; Stability of TCO ([1]; E) in acetonitrile with 5 equivalents of 2-mercaptoethanol per TCO at 20° C.): stable stable stable stable stable stable stable stable stable stable stable stable stable stable; Stability of TCO ([1]; F) in tetrahydrofuran with 5 equivalents of triphenylphosphine per TCO at 20° C.): stable stable stable stable stable stable stable stable stable stable stable stable stable stable; Stability of TCO ([1]; H) in acetonitrile with 5 equivalents of PyBOP per TCO at 20° C.): stable stable stable stable stable stable stable stable stable stable stable stable stable stable; Stability of TCO ([1]; J) in chloroform at 20° C.): stable stable stable stable stable stable stable stable stable stable stable stable stable stable; Stability of TCO ([1]; K) in chloroform with 1 v % of formic acid at 20° C.): stable stable stable stable stable stable stable stable stable stable stable stable stable stable; Stability of TCO ([1]; L) in chloroform with 1 v % of trifluoroacetic acid at 20° C.): stable stable stable stable stable stable stable stable stable stable stable stable stable stable; Stability of TCO ([1]; M) in chloroform with 10 v % of trifluoroacetic acid at 20° C.): stable stable stable stable stable stable stable stable stable stable stable stable stable stable; Deprotection (%) ([2]; tetrazine 8; C) in acetonitrile with 5 equivalents of piperidine per TCO at 20° C.): 48%; Deprotection (%) ([2]; tetrazine 8; D) in acetonitrile with 5 equivalents of n-butylamine per TCO at 20° C.): 47%; Deprotection (%) ([2]; tetrazine 8; E) in acetonitrile with 5 equivalents of 2-mercaptoethanol per TCO at 20° C.): 67%; Deprotection (%) ([2]; tetrazine 8; F) in tetrahydrofuran with 5 equivalents of triphenylphosphine per TCO at 20° C.): 75%; Deprotection (%) ([2]; tetrazine 8; H) in acetonitrile with 5 equivalents of PyBOP per TCO at 20° C.): 74%; Deprotection (%) [2, 13]: 73%; Deprotection (%) ([2]; tetrazine 8; K) in chloroform with 1 v % of formic acid at 20° C.): 98%; Deprotection (%) ([2]; tetrazine 8; L) in chloroform with 1 v % of trifluoroacetic acid at 20° C.): 99%; Deprotection (%) ([2]; tetrazine 8; M) in chloroform with 10 v % of trifluoroacetic acid at 20° C.): 99%
O=C(Oc1ccc([N+](=O)[O-])cc1)OC1/C=C/CCCCC1 (stereo not shown)	stable		stable	stable	stable	64	90	72	97	70	Stability of TCO: hydrolysis [1, 5]: 19%
C1=C/C(OCc2ccccc2)CCCCC/1 (stereo not shown)					stable stable					54	Stability of TCO ([1]; J) in chloroform at 20° C.): stable stable; Deprotection (%) [2, 13]: 70%
O=C(Cc1ccccc1)C(C(=O)OC1/C=C/CCCCC1)c1ccccc1 (stereo not shown)					stable stable					70	Stability of TCO ([1]; J) in chloroform at 20° C.): stable stable; Deprotection (%) [2, 13]: 95%
COc1cccc2c1C(=O)c1c(O)c3c(c(O)c1C2=O)C[C@@](O)(C(=O)CO)C[C@@H]3O[C@H]1C[C@H](N)[C@H](O)[C@H](C)O1 [doxorubicin, reference compound]											time to complete release of free doxorubicin from the beads [3]: ≤ 24 h; release of free doxorubicin from the beads ([3]; after 3 h): > 45%
O=C(OC1/C=C/CCCCC1)c1ccc([N+](=O)[O-])cc1 (stereo not shown) [drawing 116]	stable		stable	stable	stable	68	83	89	95	80	Stability of TCO: hydrolysis [1, 5]: ~2%
O=C(OC1/C=C/CCCCC1)c1ccc([N+](=O)[O-])cc1 (stereo not shown) [drawing 118]					stable					66	
C1=C/C(Oc2ccccc2)CCCCC/1 (stereo not shown) [drawing 120]	stable stable stable stable stable	stable stable stable stable stable	stable stable stable stable stable	stable stable stable stable stable	stable stable stable stable stable	42	92	80	92	87	
C1=C/C(Oc2ccccc2)CCCCC/1 (stereo not shown) [drawing 122]					stable					72	
Cc1cc(C)cc(NC(=O)OC2/C=C/CCCCC2)c1 (stereo not shown) [drawing 126]	stable stable stable stable	stable stable stable stable	stable stable stable stable	stable stable stable stable		14	4	61	97		
Cc1cc(C)cc(NC(=O)OC2/C=C/CCCCC2)c1 (stereo not shown) [drawing 128]	stable stable stable stable	stable stable stable stable	stable stable stable stable	stable stable stable stable		55	39	91	97		
